“Also recorded” adds a separate entry of the source.
Legend:
[1] = system: MDA-LM2 (LM2); assay: Orthotopic MDA-LM2 tumor / pulmonary metastasis model; type: in vivo, mice
Method: (§1) For orthotopic injection, 1×10^6 viable MDA-MB-231, MDA-Cont, or MDA-miR-708 cells were injected into CB-17 SCID mice fat pads in a volume of 0.1 ml. Tumor growth and pulmonary metastases (following resection of primary tumor) were monitored by live animal bioluminescent imaging (Xenogen IVIS system) once per week.
(§2) Mice inoculated with firefly luciferase were anaesthetized and injected retro-orbitally with 75 mg/kg of D-luciferin (30 mg/mL in PBS). Images were taken with mice in a supine position using the Xenogen IVIS system coupled to Living Image acquisition and analysis software (Xenogen). For bioluminescence (BLI) plots, photon flux was calculated for each mouse by using a rectangular region of interest encompassing the thorax of the mouse.
Paraffin embedded sections (5 μm) were deparaffinized following standard protocols. […] Images were obtained with an Axiovert 40 CFL microscope coupled with Axioversion 4.8.2 software (Carl Zeiss). For nodule counting, lungs were perfused, isolated and OCT embedded and sectioned for immunohistochemical analysis. Cryosections (8 μm) were mounted on glass slides and stained with hematoxylin and eosin (H&E).
To measure number of CTC in blood, 100 μl of peripheral blood was collected from mice bearing orthotopic […] expressing MDA and MDA-mir-708 breast tumors. Total RNA was isolated and subjected to Taqman Q-PCR for GFP transgene. To convert quantitative-PCR data into number of CTCs, a standard curve was generated by serially diluting GFP+MDA tumor spiked into […] of normal wild type mouse blood.

[2] = system: Akt2; assay: Akt2 suppression in breast cancer cells (data not shown); type: cell-based
[3] = system: MDA-MB-231 cells; assay: Orthotopic MDA tumor / pulmonary metastasis model, bioluminescence imaging; type: in vivo, CB-17 SCID mice
Method: as §1, §2

[4] = system: MDA-MB-231 (MDA); assay: Wound healing / transwell migration of MDA cells stably expressing miR-708; type: cell-based, human; details: MDA cells stably expressing miR-708 (lentiviral) vs controls
Description: To express miRNA-708 in cells, about 500 bp of pri-miRNA containing the mature miR-708 sequence 5′-[…]-3′ (SEQ ID NO: 2) was amplified and cloned into the pZEO lentiviral construct in fusion with a GFP reporter as described (Ryu et al., 2011). miRNA sponge was generated according to (Ebert et al., 2007). Briefly, the sponge contains twelve miR-708 binding sites, 5′-[…]-3′ (SEQ ID NO: 3) which is fused with GFP and driven by an EF1α promoter. In particular, miRNA-708 was designed and cloned into the Xho I/EcoR I site of the lentiviral vector. To express miRNA-708 inducibly in cells, a doxycycline inducible construct was generated. […]
Cells were plated in triplicate into 6-well plates (5×10^5 cell/well) and cultured in DMEM containing 10% FBS. […] Cell migration was photographed and measured under phase-contrast microscopy. To measure cell migration after depletion of intracellular calcium, a scratch was made and the wound healing was monitored for 48 hr in the presence of 20 μM of BAPTA-AM (Invitrogen). The percentage of wound healed area was measured as a ratio of occupied area to the total area using Image J program (NIH).
For transwell assays, 10,000 cells were plated in triplicate on 8 micron inserts in 24 well plates containing DMEM. […] After staining, images were obtained using a computerized Zeiss microscope (Axiovert 200M) and analyzed using Axiovision 4.6 software (Carl Zeiss Inc.).

[5] = system: NNAT protein; assay: Western blot of NNAT; type: cell-based, human
Method: Cells were homogenized in 1×RIPA lysis buffer (Millipore) containing protease inhibitors (Roche Applied Science) and 1× phosphatase inhibitor (Thermo Scientific). Samples were boiled in 1× NuPAGE LDS sampling buffer (Invitrogen), and loaded onto 4-20% gradient Tris-HCl gels (BioRad). Western blotting was performed using antibodies specific for NNAT (Cat#AB27266, Abcam), EPDR1 (Cat# SC81820, Santa Cruz), SSRP1 (Cat#SC56782, Santa Cruz), HOXB3 (Cat# SC17161, Santa Cruz), HNRNPK (Cat# SC28380, Santa Cruz), CNTFR, Phospho-p44/42 MAPK (Erk1/2, Cat #4370, Cell Signaling), p44/42 MAPK (Erk1/2, Cat #4695, Cell Signaling), VINCULIN (Cat#V9131, Sigma-Aldrich), and β-ACTIN (Sigma-Aldrich).

[6] = system: metastatic prostate cancer cells PC3; assay: Migration of PC3 cells with ectopic miR-708; type: cell-based, human; details: ectopic expression of miR-708 in PC3

miR-708: microRNA, mature sequence 5'-AAGGAGCUUACAAUCUAGCUGGG-3' (SEQ ID NO: 2); expressed from lentiviral vector or used as synthetic precursor
primary tumor growth ([1]; LM2 cells over-expressing miR-708, day 60): remained unperturbed
lung metastases (photon flux) ([1]; LM2 cells over-expressing miR-708, day 67): significantly lower photon flux; also recorded: pronounced reduction
number of lung metastatic nodules ([1]; MDA-LM2-miR-708 vs controls, H&E sections): reduced numbers
number of circulating tumor cells (CTCs) ([1]; peripheral blood of MDA-LM2-miR-708 tumor bearing mice vs controls): reduced number
primary tumor size measurements ([1]; weight over time, FIG. 7H): unaffected
Akt2 suppression [2]: not suppressed
primary tumor growth (bioluminescence imaging) ([3]; MDA-miR-708 vs MDA-pZeo control, day 30): no change
lung metastases (bioluminescence) ([3]; MDA-miR-708 vs control, primary tumors resected day 30, day 37): significantly suppressed
primary tumor growth (bioluminescence) ([3]; constitutive miR-708 in MDA cells, mammary fat pad, day 60): no significant difference
lung metastases (bioluminescence) ([3]; constitutive miR-708 in MDA cells, primary tumors resected day 60, day 74): suppressed lung metastases
primary tumor growth ([3]; doxycycline-mediated induction of miR-708, day 60): not affected
metastases ([3]; doxycycline-mediated induction of miR-708, day 74): attenuated metastases
migration rates [4]: suppressed migration rates
expression of NNAT protein ([5]; MDA-708 vs MDA control cells, constitutive expression): significantly decreased
Nnat levels ([5]; doxycycline-mediated conditional expression of miR-708): significant reduction
NNAT expression from Nnat cDNA ([5]; mutant 3'-UTR (Nnat-mut), synthetic miR-708): abolished miR-708-mediated suppression
NNAT expression from Nnat cDNA ([5]; wild type UTR, synthetic miR-708 vs scrambled): suppressed expression
migration [6]: suppressed migration

— US9512425B2, “Inhibiting migration of cancer cells” (Cornell University, priority 2012, dated 2016)
